Results taken from US9549965B2, “Pharmaceutical composition for treating a microbial infection” (HELPERBY THERAPEUTICS LIMITED, priority 2010, dated 2017).
≈ marks a conversion by molar mass, not a printed value.

How the values were obtained:
[1] = tested on: clinically latent microorganisms; assay: Screening for ability to kill clinically latent microorganisms (method of WO2000028074); type: cell-based
Text: International Patent Application, Publication Number WO2000028074 describes a method of screening compounds to determine their ability to kill clinically latent microorganisms. […] This observation has necessitated the development of novel antimicrobials which may be used to kill clinically latent microorganisms.
By way of example, WO2000028074 describes a suitable method of screening compounds to determine their ability to kill clinically latent microorganisms. A typical method may include the following steps: • (1) growing a bacterial culture to stationary phase; • (2) treating the stationary phase culture with one or more antimicrobial agents at a concentration and or time sufficient to kill growing bacteria, thereby selecting a phenotypically resistant sub-population; • (3) incubating a sample of the phenotypically resistant subpopulation with one or more test compounds or agents; and • (4) assessing any antimicrobial effects against the phenotypically resistant subpopulation.

persistent E. coli = assay: Bactericidal activity against persistent E. coli selected by gentamicin; type: cell-based, Escherichia coli; conditions: Escherichia coli, read-out: Log Kill
Protocol: (§1) Escherichia coli K12; Gram negative; Reference strain.
An antibiotic (gentamicin) was added to 5-6 day stationary-phase cultures to the final concentration of 50 to 100 μg/ml for 24 hours. After 24 hours of antibiotic treatment, the cells are washed 3 times with phosphate buffered saline (PBS), and then resuspended in PBS. The surviving bacterial cells are used as persisters. Viability is estimated by CFU counts. The persisters were then used in measurements of bactericidal activity for test compounds.
Different concentrations of each test compound were incubated with the (persister) cell suspension in 96 well plates for various periods of time (24 and 48 hours). Bactericidal activity was then determined by taking CFU counts of the resulting cultures, as described above.

[2] = tested on: NDM-1 Klebsiella pneumoniae; assay: Chequerboard analysis with colistin against NDM-1 Klebsiella pneumoniae; type: cell-based
[3] = tested on: stationary phase S. aureus; assay: Bactericidal activity against stationary phase S. aureus (CFU counts); type: cell-based, Staphylococcus aureus; conditions: Staphylococcus aureus, read-out: Log Kill
Protocol: Staphylococcus aureus (Oxford strain); Gram positive; Reference strain.
(§2) Bacteria were grown in 10 ml of nutrient broth (No. 2 (Oxoid)) overnight at 37° C., with continuous shaking at 120 rpm. The overnight cultures were diluted (1000×) in 100 ml of growth medium and then incubated without shaking for 10 days. Viability of the bacteria was estimated by colony forming unit (CFU) counts at 2 hour intervals at the first 24 hours and at 12-24 hours afterwards. From serial 10-fold dilutions of the experimental cultures, 100 μl samples were added to triplicate plates of nutrient agar plates (Oxoid) and blood agar plates (Oxoid). Colony forming units (CFU) were counted after incubation of the plates at 37° C. for 24 hours.
(§3) Cultures incubated for more than 24 hours are in the stationary phase. For drug screening, 5-6 day old stationary phase cultures were used.
(§4) Different concentrations of each test compound were incubated with stationary phase cultures (5-6 day cultures) in 96 well plates for 24 or 48 hours. Bactericidal activity was then determined by taking CFU counts of the resulting cultures, as described above.

[4] = tested on: stationary phase P. aeruginosa; assay: Bactericidal activity against stationary phase P. aeruginosa; type: cell-based, Pseudomonas aeruginosa
Protocol: as §2, with “Pseudomonas aeruginosa NCTC 6751; Gram negative; Reference strain. Bacteria” for “Bacteria”, “hours. Cultures incubated for more than 24 hours are in the stationary phase. For drug screening, 5-6 day old stationary phase cultures were used. Different concentrations of each test compound were incubated with stationary phase cultures (5-6 day cultures) in 96 well plates for 24 or 48 hours. Bactericidal activity was then determined by taking CFU counts of the resulting cultures, as described above.” for “hours.”

stationary phase E. coli = assay: Bactericidal activity against stationary phase E. coli (CFU counts); type: cell-based, Escherichia coli; conditions: Escherichia coli, read-out: Log kill
Protocol: as §1, §2, §3, §4

log phase E. coli = assay: MIC against log phase E. coli; type: cell-based, Escherichia coli; conditions: Escherichia coli, read-out: MIC
Protocol: as §1
The above-described overnight cultures were diluted (1000×) with iso-sensitest broth. The cultures were then incubated at 37° C. with shaking for 1-2 hours to reach log CFU 6, which served as log phase cultures.
The bactericidal activity of the drugs against log phase cultures were determined by minimal inhibitory concentration (MIC) of the drugs, which is defined as the lowest concentration which inhibits visible growth. Different concentrations of each test compound were incubated with the log-phase cultures in 96 well plates for 24 hours. Bactericidal activity was then examined by taking a spectrophotometer reading (using a plate reader) at 405 nm.

`CC(=O)NC[C@H]1CN(c2ccc(N3CCOCC3)c(F)c2)C(=O)O1` [linezolid] was tested, and the “activity against clinically latent microorganisms” value [1] was “little or no activity”.
`CC[C@H]1OC(=O)[C@H](C)[C@@H](O[C@H]2C[C@@](C)(OC)[C@@H](O)[C@H](C)O2)[C@H](C)[C@@H](O[C@@H]2O[C@H](C)C[C@H](N(C)C)[C@H]2O)[C@](C)(O)C[C@@H](C)CN(C)[C@H](C)[C@@H](O)[C@]1(C)O` [azithromycin] was tested, and the “activity against clinically latent microorganisms” value [1] was “little or no activity”.
`C/C(=C\C(=O)OCCCCCCCCC(=O)O)C[C@@H]1OC[C@H](C[C@@H]2O[C@H]2[C@@H](C)[C@H](C)O)[C@@H](O)[C@H]1O` [mupirocin] was tested, and the “activity against clinically latent microorganisms” value [1] was “little or no activity”.
`OC(c1cc(C(F)(F)F)nc2c(C(F)(F)F)cccc12)C1CCCCN1` (stereo not drawn) [Mefloquine] showed a log reduction at 6.25 µg/mL (persistent E. coli; 6.25 μg/ml) of 0.02, a log reduction at 12.5 µg/mL (persistent E. coli; 12.5 μg/ml) of 0.03 and a log reduction at 25 µg/mL (persistent E. coli; 25 μg/ml) of 6.21. It also gave a spectrophotometer reading ([2]; mefloquine 0.25 mg/L alone) of 1.10, a spectrophotometer reading ([2]; mefloquine 0.5 mg/L alone) of 1.08 and a spectrophotometer reading ([2]; mefloquine 1 mg/L alone) of 1.10. For the same compound, the spectrophotometer reading ([2]; mefloquine 2 mg/L alone) was 1.09, the spectrophotometer reading ([2]; mefloquine 4 mg/L alone) was 1.09 and the spectrophotometer reading ([2]; mefloquine 8 mg/L alone) was 1.15. The spectrophotometer reading ([2]; mefloquine 16 mg/L alone) was 1.10, the spectrophotometer reading ([2]; mefloquine 32 mg/L alone) was 0.82 and the spectrophotometer reading ([2]; mefloquine 64 mg/L alone) was 0.60. The spectrophotometer reading ([2]; mefloquine 128 mg/L alone) was 0.33, the spectrophotometer reading ([2]; mefloquine 256 mg/L alone) was 0.34 and the log reduction at 6.25 µg/mL ([3]; 6.25 μg/ml) was -0.01. For the same compound, the log reduction at 12.5 µg/mL ([3]; 12.5 μg/ml) was 6.03, the log reduction at 25 µg/mL ([3]; 25 μg/ml) was 6.03 and the “log reduction of the bacterium” value ([4]; 40 μg/ml) was “about 1.5 log”. The organism removed ([4]; 80 μg/ml) was “more than 10^7”, the “activity against stationary phase P. aeruginosa” value ([4]; FIG. 1) was “active” and the log reduction at 6.25 µg/mL (stationary phase E. coli; 6.25 μg/ml) was 2.48. It also gave a log reduction at 12.5 µg/mL (stationary phase E. coli; 12.50 μg/ml) of 6.14, a log reduction at 25 µg/mL (stationary phase E. coli; 25.00 μg/ml) of 6.14 and an MIC (log phase E. coli) of 10 mg/L (≈ 26.4 µM).
